Values quoted from earlier work, collected in patent US11111250B2 (SHILPA MEDICARE LIMITED, priority 2017, dated 2021).

Key:
[1] = aqueous media, pH dependence
[2] = long term and accelerated stability studies, stored in the proposed packaging

Ribociclib mono succinate
solubility [1]: soluble in acidic aqueous media, becoming less soluble as pH increases

Ribociclib mono succinate [Ribociclib mono succinate form A]
polymorphic stability [2]: stable and not to convert into other polymorphic forms
